{"source": "paper PMC6886798", "about": "“Expression of myeloid Src-family kinases is associated with poor prognosis in AML and influences Flt3-ITD kinase inhibitor acquired resistance” (PLoS ONE, 2019)", "assay_in_all_cases": "KINOMEscan", "type_in_all_cases": "binding", "conditions_in_all_cases": "1.0 µM", "key": {"[1]": {"target": "T1, ABL1(T315I)-nonphosphorylated (Homo sapiens, UniProt P00519, T315I)", "T1 construct": "purchased Eurofins/DiscoverX KINOMEscan scanMAX", "experimental": "(§1) Kinase retention to the immobilized ligand is then measured using quantitative real-time PCR for each kinase-specific DNA barcode."}, "[2]": {"target": "T2, ABL2 (Homo sapiens, UniProt P42684)", "T2 construct": "purchased Eurofins/DiscoverX KINOMEscan scanMAX", "experimental": "as §1"}, "[3]": {"target": "T3, ACVR1B (Homo sapiens, UniProt P36896)", "T3 construct": "purchased Eurofins/DiscoverX KINOMEscan scanMAX", "experimental": "as §1"}, "[4]": {"target": "T4, AURKB (Homo sapiens, UniProt Q96GD4)", "T4 construct": "purchased Eurofins/DiscoverX KINOMEscan scanMAX", "experimental": "as §1"}, "[5]": {"target": "T5, BRAF(V600E) (Homo sapiens, UniProt P15056, V600E)", "T5 construct": "purchased Eurofins/DiscoverX KINOMEscan scanMAX", "experimental": "as §1"}, "[6]": {"target": "T6, CHEK2 (Homo sapiens, UniProt O96017)", "T6 construct": "purchased Eurofins/DiscoverX KINOMEscan scanMAX", "experimental": "as §1"}, "[7]": {"target": "T7, DDR2 (Homo sapiens, UniProt Q16832)", "T7 construct": "purchased Eurofins/DiscoverX KINOMEscan scanMAX", "experimental": "as §1"}, "[8]": {"target": "T8, EIF2AK1 (Homo sapiens, UniProt Q9BQI3)", "T8 construct": "purchased Eurofins/DiscoverX KINOMEscan scanMAX", "experimental": "as §1"}, "[9]": {"target": "T9, EPHA1 (Homo sapiens, UniProt P21709)", "T9 construct": "purchased Eurofins/DiscoverX KINOMEscan scanMAX", "experimental": "as §1"}, "[10]": {"target": "T10, EPHA3 (Homo sapiens, UniProt P29320)", "T10 construct": "purchased Eurofins/DiscoverX KINOMEscan scanMAX", "experimental": "as §1"}, "[11]": {"target": "T11, ERBB2 (Homo sapiens, UniProt P04626)", "T11 construct": "purchased Eurofins/DiscoverX KINOMEscan scanMAX", "experimental": "as §1"}, "[12]": {"target": "T12, ERK3 (Homo sapiens, UniProt Q16659)", "T12 construct": "purchased Eurofins/DiscoverX KINOMEscan scanMAX", "experimental": "as §1"}, "[13]": {"target": "T13, FES (Homo sapiens, UniProt P07332)", "T13 construct": "purchased Eurofins/DiscoverX KINOMEscan scanMAX", "T13 sequence (P07332 whole entry)": "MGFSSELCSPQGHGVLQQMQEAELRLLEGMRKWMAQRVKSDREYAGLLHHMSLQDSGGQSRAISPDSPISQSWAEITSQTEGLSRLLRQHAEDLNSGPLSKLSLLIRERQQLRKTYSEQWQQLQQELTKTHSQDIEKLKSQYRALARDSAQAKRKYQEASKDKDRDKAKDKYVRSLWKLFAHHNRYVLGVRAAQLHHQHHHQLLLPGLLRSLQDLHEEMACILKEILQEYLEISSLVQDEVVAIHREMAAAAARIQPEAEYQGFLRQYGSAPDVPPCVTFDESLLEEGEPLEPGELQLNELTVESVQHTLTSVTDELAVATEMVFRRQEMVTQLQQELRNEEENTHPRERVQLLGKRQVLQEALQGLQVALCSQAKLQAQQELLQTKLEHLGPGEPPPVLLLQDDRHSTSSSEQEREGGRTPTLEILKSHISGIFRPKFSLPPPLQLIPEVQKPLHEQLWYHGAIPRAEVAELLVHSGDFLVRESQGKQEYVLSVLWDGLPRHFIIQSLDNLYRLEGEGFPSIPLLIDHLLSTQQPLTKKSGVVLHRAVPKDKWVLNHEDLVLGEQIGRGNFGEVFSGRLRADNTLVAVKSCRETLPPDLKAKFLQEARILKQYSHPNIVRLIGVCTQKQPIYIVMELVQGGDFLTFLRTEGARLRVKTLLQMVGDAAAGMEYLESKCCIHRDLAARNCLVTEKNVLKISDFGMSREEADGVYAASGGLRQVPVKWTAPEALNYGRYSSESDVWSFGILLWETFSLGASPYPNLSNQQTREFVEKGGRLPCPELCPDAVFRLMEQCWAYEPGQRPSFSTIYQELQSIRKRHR", "experimental": "as §1"}, "[14]": {"target": "T14, FGFR2 (Homo sapiens, UniProt P21802)", "T14 construct": "purchased Eurofins/DiscoverX KINOMEscan scanMAX", "experimental": "as §1"}, "[15]": {"target": "T15, FGFR4 (Homo sapiens, UniProt P22455)", "T15 construct": "purchased Eurofins/DiscoverX KINOMEscan scanMAX", "experimental": "as §1"}, "[16]": {"target": "T16, FLT3 (Homo sapiens, UniProt P36888)", "T16 construct": "purchased Eurofins/DiscoverX KINOMEscan scanMAX", "T16 sequence (P36888 27-993)": "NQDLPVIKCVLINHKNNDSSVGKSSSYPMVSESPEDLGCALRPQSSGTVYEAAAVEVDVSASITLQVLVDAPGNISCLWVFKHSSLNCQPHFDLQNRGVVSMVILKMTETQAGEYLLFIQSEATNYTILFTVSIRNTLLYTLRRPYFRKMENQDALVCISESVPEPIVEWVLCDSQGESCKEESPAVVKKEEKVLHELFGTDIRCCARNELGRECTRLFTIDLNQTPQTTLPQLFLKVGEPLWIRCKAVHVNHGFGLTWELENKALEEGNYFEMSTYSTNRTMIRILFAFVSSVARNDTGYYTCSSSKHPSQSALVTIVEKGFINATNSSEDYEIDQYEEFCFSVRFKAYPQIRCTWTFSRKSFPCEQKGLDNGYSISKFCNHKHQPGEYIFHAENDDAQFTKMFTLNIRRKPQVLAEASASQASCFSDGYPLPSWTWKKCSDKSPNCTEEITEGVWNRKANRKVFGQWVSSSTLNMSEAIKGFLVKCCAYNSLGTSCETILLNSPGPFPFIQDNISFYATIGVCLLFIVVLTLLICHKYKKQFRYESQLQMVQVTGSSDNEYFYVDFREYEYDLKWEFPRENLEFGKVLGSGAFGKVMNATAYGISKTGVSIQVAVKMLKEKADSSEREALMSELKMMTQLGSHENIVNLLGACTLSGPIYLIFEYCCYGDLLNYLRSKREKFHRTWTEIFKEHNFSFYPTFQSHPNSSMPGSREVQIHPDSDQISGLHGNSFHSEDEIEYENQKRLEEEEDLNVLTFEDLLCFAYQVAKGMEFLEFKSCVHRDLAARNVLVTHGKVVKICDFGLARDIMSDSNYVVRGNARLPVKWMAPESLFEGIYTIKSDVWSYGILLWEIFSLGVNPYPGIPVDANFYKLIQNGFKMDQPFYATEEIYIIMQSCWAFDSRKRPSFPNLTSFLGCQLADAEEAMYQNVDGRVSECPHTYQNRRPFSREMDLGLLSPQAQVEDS", "experimental": "as §1"}, "[17]": {"target": "T17, FYN (Homo sapiens, UniProt P06241)", "T17 construct": "purchased Eurofins/DiscoverX KINOMEscan scanMAX", "experimental": "as §1"}, "[18]": {"target": "T18, HUNK (Homo sapiens, UniProt P57058)", "T18 construct": "purchased Eurofins/DiscoverX KINOMEscan scanMAX", "experimental": "as §1"}, "[19]": {"target": "T19, JAK2(JH1domain-catalytic) (Homo sapiens, UniProt O60674)", "T19 construct": "JAK2(JH1domain-catalytic); purchased Eurofins/DiscoverX KINOMEscan scanMAX", "experimental": "as §1"}, "[20]": {"target": "T20, JNK2 (Homo sapiens, UniProt P45984)", "T20 construct": "purchased Eurofins/DiscoverX KINOMEscan scanMAX", "experimental": "as §1"}, "[21]": {"target": "T21, LKB1 (Homo sapiens, UniProt Q15831)", "T21 construct": "purchased Eurofins/DiscoverX KINOMEscan scanMAX", "experimental": "as §1"}, "[22]": {"target": "T22, MAPKAPK2 (Homo sapiens, UniProt P49137)", "T22 construct": "purchased Eurofins/DiscoverX KINOMEscan scanMAX", "T22 sequence (P49137 whole entry)": "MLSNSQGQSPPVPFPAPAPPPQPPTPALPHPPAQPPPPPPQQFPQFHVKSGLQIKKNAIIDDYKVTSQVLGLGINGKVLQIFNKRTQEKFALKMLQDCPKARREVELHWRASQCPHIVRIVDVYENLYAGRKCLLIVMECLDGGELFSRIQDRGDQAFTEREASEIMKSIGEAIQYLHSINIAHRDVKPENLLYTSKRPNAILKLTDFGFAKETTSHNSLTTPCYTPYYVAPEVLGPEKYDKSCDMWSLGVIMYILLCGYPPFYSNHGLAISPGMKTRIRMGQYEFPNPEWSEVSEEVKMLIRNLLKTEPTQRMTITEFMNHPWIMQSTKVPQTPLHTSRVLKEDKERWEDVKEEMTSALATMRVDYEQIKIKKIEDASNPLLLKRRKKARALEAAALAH", "experimental": "as §1"}, "[23]": {"target": "T23, MEK5 (Homo sapiens, UniProt Q13163)", "T23 construct": "purchased Eurofins/DiscoverX KINOMEscan scanMAX", "experimental": "as §1"}, "[24]": {"target": "T24, MUSK (Homo sapiens, UniProt O15146)", "T24 construct": "purchased Eurofins/DiscoverX KINOMEscan scanMAX", "experimental": "as §1"}, "[25]": {"target": "T25, PAK1 (Homo sapiens, UniProt Q13153)", "T25 construct": "purchased Eurofins/DiscoverX KINOMEscan scanMAX", "T25 sequence (Q13153 whole entry)": "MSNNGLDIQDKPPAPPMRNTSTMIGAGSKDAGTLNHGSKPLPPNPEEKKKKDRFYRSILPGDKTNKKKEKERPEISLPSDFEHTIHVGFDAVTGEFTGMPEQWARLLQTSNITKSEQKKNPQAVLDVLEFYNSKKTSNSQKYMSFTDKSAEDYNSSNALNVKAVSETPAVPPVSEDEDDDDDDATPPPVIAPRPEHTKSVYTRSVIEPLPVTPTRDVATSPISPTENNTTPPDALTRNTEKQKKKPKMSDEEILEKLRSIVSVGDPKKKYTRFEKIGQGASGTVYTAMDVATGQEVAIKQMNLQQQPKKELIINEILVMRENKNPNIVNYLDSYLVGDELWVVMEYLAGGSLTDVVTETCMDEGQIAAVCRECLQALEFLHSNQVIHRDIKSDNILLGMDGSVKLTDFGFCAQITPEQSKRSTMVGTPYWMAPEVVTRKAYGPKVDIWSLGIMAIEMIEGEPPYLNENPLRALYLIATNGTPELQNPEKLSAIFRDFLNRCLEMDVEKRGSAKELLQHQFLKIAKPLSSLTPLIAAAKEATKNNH", "experimental": "as §1"}, "[26]": {"target": "T26, PAK2 (Homo sapiens, UniProt Q13177)", "T26 construct": "purchased Eurofins/DiscoverX KINOMEscan scanMAX", "experimental": "as §1"}, "[27]": {"target": "T27, PAK4 (Homo sapiens, UniProt O96013)", "T27 construct": "purchased Eurofins/DiscoverX KINOMEscan scanMAX", "experimental": "as §1"}, "[28]": {"target": "T28, PDGFRB (Homo sapiens, UniProt P09619)", "T28 construct": "purchased Eurofins/DiscoverX KINOMEscan scanMAX", "experimental": "as §1"}, "[29]": {"target": "T29, PIM2 (Homo sapiens, UniProt Q9P1W9)", "T29 construct": "purchased Eurofins/DiscoverX KINOMEscan scanMAX", "experimental": "as §1"}, "[30]": {"target": "T30, PLK1 (Homo sapiens, UniProt P53350)", "T30 construct": "purchased Eurofins/DiscoverX KINOMEscan scanMAX", "experimental": "as §1"}, "[31]": {"target": "T31, PRKD1 (Homo sapiens, UniProt Q15139)", "T31 construct": "purchased Eurofins/DiscoverX KINOMEscan scanMAX", "T31 sequence (Q15139 whole entry)": "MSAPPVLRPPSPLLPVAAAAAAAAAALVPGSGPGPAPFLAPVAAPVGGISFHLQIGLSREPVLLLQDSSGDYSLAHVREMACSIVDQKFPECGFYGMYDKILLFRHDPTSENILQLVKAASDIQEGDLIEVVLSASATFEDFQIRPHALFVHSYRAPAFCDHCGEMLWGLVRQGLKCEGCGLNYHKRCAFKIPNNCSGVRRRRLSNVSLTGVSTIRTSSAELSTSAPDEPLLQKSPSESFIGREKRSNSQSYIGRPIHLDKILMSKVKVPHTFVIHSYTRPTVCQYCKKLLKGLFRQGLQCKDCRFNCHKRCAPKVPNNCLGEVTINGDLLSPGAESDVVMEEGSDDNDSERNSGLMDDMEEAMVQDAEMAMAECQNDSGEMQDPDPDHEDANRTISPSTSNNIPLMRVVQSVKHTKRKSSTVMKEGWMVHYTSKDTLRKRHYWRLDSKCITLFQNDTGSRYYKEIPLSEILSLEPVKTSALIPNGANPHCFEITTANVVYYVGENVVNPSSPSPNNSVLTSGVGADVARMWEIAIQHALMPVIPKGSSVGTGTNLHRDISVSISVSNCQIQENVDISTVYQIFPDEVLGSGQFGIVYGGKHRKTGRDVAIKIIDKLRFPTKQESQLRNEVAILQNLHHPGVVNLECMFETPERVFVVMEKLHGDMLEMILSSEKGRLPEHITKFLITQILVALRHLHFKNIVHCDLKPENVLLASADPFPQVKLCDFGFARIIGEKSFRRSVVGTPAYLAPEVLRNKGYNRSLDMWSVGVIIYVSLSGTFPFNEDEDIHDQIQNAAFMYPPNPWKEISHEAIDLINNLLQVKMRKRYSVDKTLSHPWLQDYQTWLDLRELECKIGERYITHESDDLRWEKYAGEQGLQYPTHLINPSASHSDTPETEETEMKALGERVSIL", "experimental": "as §1"}, "[32]": {"target": "T32, PRKD2 (Homo sapiens, UniProt Q9BZL6)", "T32 construct": "purchased Eurofins/DiscoverX KINOMEscan scanMAX", "experimental": "as §1"}, "[33]": {"target": "T33, RET (Homo sapiens, UniProt P07949)", "T33 construct": "purchased Eurofins/DiscoverX KINOMEscan scanMAX", "experimental": "as §1"}, "[34]": {"target": "T34, RIPK4 (Homo sapiens, UniProt P57078)", "T34 construct": "purchased Eurofins/DiscoverX KINOMEscan scanMAX", "experimental": "as §1"}, "[35]": {"target": "T35, RSK4(Kin.Dom.2-C-terminal) (Homo sapiens, UniProt Q9UK32)", "T35 construct": "RSK4(Kin.Dom.2-C-terminal); purchased Eurofins/DiscoverX KINOMEscan scanMAX", "experimental": "as §1"}, "[36]": {"target": "T36, SNARK (Homo sapiens, UniProt Q9H093)", "T36 construct": "purchased Eurofins/DiscoverX KINOMEscan scanMAX", "experimental": "as §1"}, "[37]": {"target": "T37, SRC (Homo sapiens, UniProt P12931)", "T37 construct": "purchased Eurofins/DiscoverX KINOMEscan scanMAX", "experimental": "as §1"}, "[38]": {"target": "T38, SRPK1 (Homo sapiens, UniProt Q96SB4)", "T38 construct": "purchased Eurofins/DiscoverX KINOMEscan scanMAX", "experimental": "as §1"}, "[39]": {"target": "T39, STK36 (Homo sapiens, UniProt Q9NRP7)", "T39 construct": "purchased Eurofins/DiscoverX KINOMEscan scanMAX", "experimental": "as §1"}, "[40]": {"target": "T40, TIE2 (Homo sapiens, UniProt Q02763)", "T40 construct": "purchased Eurofins/DiscoverX KINOMEscan scanMAX", "experimental": "as §1"}, "[41]": {"target": "T41, WNK4 (Homo sapiens, UniProt Q96J92)", "T41 construct": "DNA tag (qPCR barcode); purchased Eurofins/DiscoverX KINOMEscan scanMAX", "T41 sequence (Q96J92 whole entry)": "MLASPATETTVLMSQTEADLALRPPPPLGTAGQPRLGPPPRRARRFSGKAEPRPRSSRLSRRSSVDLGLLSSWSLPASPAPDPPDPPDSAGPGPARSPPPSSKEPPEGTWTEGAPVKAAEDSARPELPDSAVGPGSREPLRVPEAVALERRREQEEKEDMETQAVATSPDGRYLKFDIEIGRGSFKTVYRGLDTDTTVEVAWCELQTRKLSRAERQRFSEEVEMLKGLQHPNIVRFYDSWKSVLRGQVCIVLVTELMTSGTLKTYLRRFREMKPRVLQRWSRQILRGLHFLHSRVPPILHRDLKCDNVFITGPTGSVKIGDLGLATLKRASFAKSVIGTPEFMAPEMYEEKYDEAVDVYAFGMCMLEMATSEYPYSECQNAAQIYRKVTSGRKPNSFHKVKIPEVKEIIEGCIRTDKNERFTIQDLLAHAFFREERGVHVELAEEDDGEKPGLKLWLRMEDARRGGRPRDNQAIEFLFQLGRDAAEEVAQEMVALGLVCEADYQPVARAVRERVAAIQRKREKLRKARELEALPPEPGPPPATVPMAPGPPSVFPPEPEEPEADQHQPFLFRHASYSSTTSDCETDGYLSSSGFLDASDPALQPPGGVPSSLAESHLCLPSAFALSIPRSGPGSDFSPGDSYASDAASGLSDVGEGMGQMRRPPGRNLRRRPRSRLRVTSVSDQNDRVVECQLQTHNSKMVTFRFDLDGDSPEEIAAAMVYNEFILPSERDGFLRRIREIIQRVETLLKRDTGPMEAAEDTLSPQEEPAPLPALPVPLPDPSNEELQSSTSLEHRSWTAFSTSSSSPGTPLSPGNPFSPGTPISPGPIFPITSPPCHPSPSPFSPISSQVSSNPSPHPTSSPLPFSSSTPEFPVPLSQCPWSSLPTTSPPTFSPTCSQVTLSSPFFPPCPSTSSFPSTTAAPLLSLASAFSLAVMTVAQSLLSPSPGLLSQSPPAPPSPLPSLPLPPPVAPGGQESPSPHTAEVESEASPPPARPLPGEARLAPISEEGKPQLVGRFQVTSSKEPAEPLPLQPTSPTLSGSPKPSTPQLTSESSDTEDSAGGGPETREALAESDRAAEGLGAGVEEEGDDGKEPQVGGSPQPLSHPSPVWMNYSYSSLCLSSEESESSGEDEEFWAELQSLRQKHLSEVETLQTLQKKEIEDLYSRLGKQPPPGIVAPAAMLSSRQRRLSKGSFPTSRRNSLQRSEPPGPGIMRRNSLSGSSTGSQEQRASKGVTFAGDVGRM", "experimental": "as §1"}}}
{"smiles": "CN1CCN(C2CCC(n3cc(-c4ccc(Oc5ccccc5)cc4)c4c(N)ncnc43)CC2)CC1", "note": "(centres unmarked) [A-419259]", "values": [{"measurement": "% Control", "setting": "[1]", "result": 41, "unit": "%"}, {"measurement": "% Control", "setting": "[2]", "result": 4.9, "unit": "%"}, {"measurement": "% Control", "setting": "[3]", "result": 100, "unit": "%"}, {"measurement": "% Control", "setting": "[4]", "result": 100, "unit": "%"}, {"measurement": "% Control", "setting": "[5]", "result": 45, "unit": "%"}, {"measurement": "% Control", "setting": "[6]", "result": 40, "unit": "%"}, {"measurement": "% Control", "setting": "[7]", "result": 59, "unit": "%"}, {"measurement": "% Control", "setting": "[8]", "result": 99, "unit": "%"}, {"measurement": "% Control", "setting": "[9]", "result": 58, "unit": "%"}, {"measurement": "% Control", "setting": "[10]", "result": 95, "unit": "%"}, {"measurement": "% Control", "setting": "[11]", "result": 2.7, "unit": "%"}, {"measurement": "% Control", "setting": "[12]", "result": 100, "unit": "%"}, {"measurement": "% Control", "setting": "[13]", "result": 100, "unit": "%"}, {"measurement": "% Control", "setting": "[14]", "result": 39, "unit": "%"}, {"measurement": "% Control", "setting": "[15]", "result": 62, "unit": "%"}, {"measurement": "% Control", "setting": "[16]", "result": 0.65, "unit": "%"}, {"measurement": "% Control", "setting": "[17]", "result": 5.1, "unit": "%"}, {"measurement": "% Control", "setting": "[18]", "result": 100, "unit": "%"}, {"measurement": "% Control", "setting": "[19]", "result": 100, "unit": "%"}, {"measurement": "% Control", "setting": "[20]", "result": 94, "unit": "%"}, {"measurement": "% Control", "setting": "[21]", "result": 100, "unit": "%"}, {"measurement": "% Control", "setting": "[22]", "result": 100, "unit": "%"}, {"measurement": "% Control", "setting": "[23]", "result": 0.25, "unit": "%"}, {"measurement": "% Control", "setting": "[24]", "result": 100, "unit": "%"}, {"measurement": "% Control", "setting": "[25]", "result": 55, "unit": "%"}, {"measurement": "% Control", "setting": "[26]", "result": 91, "unit": "%"}, {"measurement": "% Control", "setting": "[27]", "result": 93, "unit": "%"}, {"measurement": "% Control", "setting": "[28]", "result": 0, "unit": "%"}, {"measurement": "% Control", "setting": "[29]", "result": 100, "unit": "%"}, {"measurement": "% Control", "setting": "[30]", "result": 100, "unit": "%"}, {"measurement": "% Control", "setting": "[31]", "result": 63, "unit": "%"}, {"measurement": "% Control", "setting": "[32]", "result": 63, "unit": "%"}, {"measurement": "% Control", "setting": "[33]", "result": 0, "unit": "%"}, {"measurement": "% Control", "setting": "[34]", "result": 84, "unit": "%"}, {"measurement": "% Control", "setting": "[35]", "result": 94, "unit": "%"}, {"measurement": "% Control", "setting": "[36]", "result": 26, "unit": "%"}, {"measurement": "% Control", "setting": "[37]", "result": 0.1, "unit": "%"}, {"measurement": "% Control", "setting": "[38]", "result": 100, "unit": "%"}, {"measurement": "% Control", "setting": "[39]", "result": 18, "unit": "%"}, {"measurement": "% Control", "setting": "[40]", "result": 15, "unit": "%"}, {"measurement": "% Control", "setting": "[41]", "result": 39, "unit": "%"}]}
